US20260159512A1, “BCAT2 INHIBITORS” (AGIOS PHARMACEUTICALS, INC., priority 2021, published 2026)

Legend:
Details in all cases: average where tested multiple times
BCAT2 [1] = molecular target: T1, BCAT2 (Homo sapiens, UniProt O15382); test: BCAT2 in vitro enzyme inhibition assay (resazurin/diaphorase-coupled fluorescence); type: biochemical
T1 sequence (O15382 28-392): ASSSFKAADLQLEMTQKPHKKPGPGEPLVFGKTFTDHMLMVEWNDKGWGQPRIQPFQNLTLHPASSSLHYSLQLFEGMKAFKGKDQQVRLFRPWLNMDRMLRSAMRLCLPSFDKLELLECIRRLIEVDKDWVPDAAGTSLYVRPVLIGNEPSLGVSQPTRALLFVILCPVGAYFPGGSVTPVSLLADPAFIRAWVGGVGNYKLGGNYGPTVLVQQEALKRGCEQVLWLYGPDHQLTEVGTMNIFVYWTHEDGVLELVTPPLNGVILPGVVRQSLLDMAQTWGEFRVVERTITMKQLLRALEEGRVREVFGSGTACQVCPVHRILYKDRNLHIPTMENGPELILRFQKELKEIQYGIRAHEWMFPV
Method in brief: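 Coupled fluorescence readout: glutamate formed from L-leucine/α-ketoglutarate transamination drives GDH/NAD/diaphorase reduction of resazurin (Ex 540/Em 590). Human BCAT2 was first exposed 1 h at room temperature to compound, top final 100 μM in 3-fold, 10-point series; substrate reaction ran 1 h before SDS quench, in technical duplicate with DMSO max and enzyme-free min controls.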

BCAT2 [2] = molecular target: T1, BCAT2; test: BCAT2 in vitro cell inhibition using engineered A549 cells (KMV cell assay, 13C6-KMV by LC-MS/MS); type: cell-based; set-up: The result was an engineered A549 cell line that expressed endogenous BCAT2; endogenous in cells; host or cells: A549 cells with MUT and BCAT1 knocked out by CRISPR/CAS9
hBCAT1 = molecular target: T2, hBCAT1 (Homo sapiens, UniProt P54687); test: BCAT1 in vitro enzyme inhibition assay (resazurin/diaphorase-coupled fluorescence); type: biochemical
T2 sequence (P54687 1-386): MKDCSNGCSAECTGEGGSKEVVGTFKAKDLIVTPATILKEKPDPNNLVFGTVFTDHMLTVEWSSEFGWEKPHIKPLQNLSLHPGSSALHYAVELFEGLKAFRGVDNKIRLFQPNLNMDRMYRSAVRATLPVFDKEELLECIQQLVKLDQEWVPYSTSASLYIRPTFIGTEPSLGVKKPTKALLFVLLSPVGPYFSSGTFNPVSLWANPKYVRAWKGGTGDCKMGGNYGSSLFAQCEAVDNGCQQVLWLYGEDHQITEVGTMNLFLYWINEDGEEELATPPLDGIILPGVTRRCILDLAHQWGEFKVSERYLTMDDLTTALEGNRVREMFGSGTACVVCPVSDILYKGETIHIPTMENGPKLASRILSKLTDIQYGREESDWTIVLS
Method in brief: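 Human BCAT1 activity read by resazurin/diaphorase-coupled fluorescence. Compounds added from 50× DMSO stocks at 1:50, giving 10-point 3-fold titrations from 100 μM top final concentration. Run in technical duplicate; repeat tests averaged.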

Row | IC50 (BCAT2 [1]) [µM] | IC50 (BCAT2 [2]) [µM] | IC50 (hBCAT1) [µM] | SMILES
1 | 0.1 to 0.5 | > 1 | > 5 | O=C(N[C@H]1CCC[C@@H](n2c(OCC(F)(F)F)nc3cnc(-n4nccn4)cc32)C1)c1ncc(Cl)s1 [Example 101, N-((1S,3R)-3-(6-(2H-1,2,3-triazol-2-yl)-2-(2,2,2-trifluoroethoxy)-1H-imidazo[4,5-c]pyridin-1-yl)cyclohexyl)-5-chlorothiazole-2-carboxamide]
2 | ≤ 0.1 | ≤ 0.1 | < 0.5 | O=C(NC1COCC(n2c(-c3ccccc3F)nc3cnc(-n4nccn4)cc32)C1)c1ncc(C(F)F)s1 (single isomer, unassigned) [Example 142, 5-(difluoromethyl)-N-(5-(2-(2-fluorophenyl)-6-(2H-1,2,3-triazol-2-yl)-1H-imidazo[4,5-c]pyridin-1-yl)tetrahydro-2H-pyran-3-yl)thiazole-2-carboxamide]
3 | ≤ 0.1 | ≤ 0.1 | < 0.5 | CC(C)Cc1nc2cnc(-n3nccn3)cc2n1[C@@H]1CCC[C@H](NC(=O)c2ccc(Cl)s2)[C@H]1O [Example 393, 5-chloro-N-((1S,2R,3R)-2-hydroxy-3-(2-isobutyl-6-(2H-1,2,3-triazol-2-yl)-1H-imidazo[4,5-c]pyridin-1-yl)cyclohexyl)thiophene-2-carboxamide]
4 | 0.1 to 0.5 | > 1 | 1 to 5 | CO[C@H]1C[C@H](NC(=O)c2ncc(Cl)s2)C[C@H](n2c(CC(C)C)nc3cnc(-n4cncn4)cc32)C1 [Example 417, 5-chloro-N-((1R,3S,5S)-3-(2-isobutyl-6-(1H-1,2,4-triazol-1-yl)-1H-imidazo[4,5-c]pyridin-1-yl)-5-methoxycyclohexyl)thiazole-2-carboxamide]
5 | ≤ 0.1 | 0.1 to 0.5 | 0.5 to 1 | CC(C)Cc1nc2cnc(-c3ncn(C)n3)cc2n1[C@@H]1CCC[C@H](NC(=O)c2ncc(Cl)s2)C1 [Example 358, 5-chloro-N-((1S,3R)-3-(2-isobutyl-6-(1-methyl-1H-1,2,4-triazol-3-yl)-1H-imidazo[4,5-c]pyridin-1-yl)cyclohexyl)thiazole-2-carboxamide]
6 | ≤ 0.1 | ≤ 0.1 | < 0.5 | CC(=O)N1CC(NC(=O)c2ccc(Cl)s2)CC(n2c(-c3ccccc3F)nc3cnc(-n4nccn4)cc32)C1 (stereo not drawn) [Example 132, N-(1-acetyl-5-(2-(2-fluorophenyl)-6-(2H-1,2,3-triazol-2-yl)-1H-imidazo[4,5-c]pyridin-1-yl)piperidin-3-yl)-5-chlorothiophene-2-carboxamide]
7 | 0.1 to 0.5 | 0.5 to 1 | 0.5 to 1 | CC(C)Cc1nc2cnc(-c3ccccc3CC#N)cc2n1[C@@H]1CCC[C@H](NC(=O)c2ccc(Cl)s2)C1 [Example 332, 5-chloro-N-((1S,3R)-3-(6-(2-(cyanomethyl)phenyl)-2-isobutyl-1H-imidazo[4,5-c]pyridin-1-yl)cyclohexyl)thiophene-2-carboxamide]
8 | ≤ 0.1 | 0.1 to 0.5 | 0.5 to 1 | Cc1coc(-c2cc3c(cn2)nc(CC(C)C)n3[C@@H]2CCC[C@H](NC(=O)c3ncc(Cl)s3)C2)n1 [Example 306, 5-chloro-N-((1S,3R)-3-(2-isobutyl-6-(4-methyloxazol-2-yl)-1H-imidazo[4,5-c]pyridin-1-yl)cyclohexyl)thiazole-2-carboxamide]
9 | ≤ 0.1 | ≤ 0.1 | < 0.5 | CC(C)Cc1nc2cnc(-n3nccn3)cc2n1[C@@H]1C[C@@H](O)C[C@H](NC(=O)c2ccc(Cl)s2)C1 (single isomer, unassigned) [Example 395]
10 | ≤ 0.1 | ≤ 0.1 | < 0.5 | O=C(N[C@H]1CCC[C@@H](n2c(-c3ccccc3O)nc3cnc(-n4nccn4)cc32)C1)c1ncc(Cl)s1 [Example 363, 5-chloro-N-((1S,3R)-3-(2-(2-hydroxyphenyl)-6-(2H-1,2,3-triazol-2-yl)-1H-imidazo[4,5-c]pyridin-1-yl)cyclohexyl)thiazole-2-carboxamide]

Continued, molecule first:

Row | SMILES | IC50 (BCAT2 [1]) [µM] | IC50 (BCAT2 [2]) [µM] | IC50 (hBCAT1) [µM]
11 | O=C(N[C@H]1CCC[C@@H](n2c(-c3ccccc3F)nc3cnc(-c4nc[nH]n4)cc32)C1)c1ncc(C(F)(F)F)s1 [Example 85, N-((1S,3R)-3-(2-(2-fluorophenyl)-6-(1H-1,2,4-triazol-3-yl)-1H-imidazo[4,5-c]pyridin-1-yl)cyclohexyl)-5-(trifluoromethyl)thiazole-2-carboxamide] | ≤ 0.1 | ≤ 0.1 | < 0.5
12 | O=C(N[C@H]1CCC[C@@H](n2c(-c3ncccc3F)nc3cnc(-n4ccnn4)cc32)C1)c1ccc(Br)s1 [Example 12, 5-bromo-N-((1S,3R)-3-(2-(3-fluoropyridin-2-yl)-6-(1H-1,2,3-triazol-1-yl)-1H-imidazo[4,5-c]pyridin-1-yl)cyclohexyl)thiophene-2-carboxamide] | ≤ 0.1 | 0.1 to 0.5 | < 0.5
13 | O=C(N[C@H]1CCC[C@@H](n2c(-c3ccccc3F)nc3cnc(-c4ccn[nH]4)cc32)[C@@H]1O)c1ncc(Cl)s1 [Example 240, 5-chloro-N-((1S,2R,3R)-3-(2-(2-fluorophenyl)-6-(1H-pyrazol-5-yl)-1H-imidazo[4,5-c]pyridin-1-yl)-2-hydroxycyclohexyl)thiazole-2-carboxamide] | ≤ 0.1 | ≤ 0.1 | < 0.5
14 | COC(c1nc2cnc(-c3nc[nH]n3)cc2n1[C@@H]1CCC[C@H](NC(=O)c2ncc(Cl)s2)C1)C(C)C (stereo partly drawn) [Example 314, 5-chloro-N-((1S,3R)-3-(2-(1-methoxy-2-methylpropyl)-6-(1H-1,2,4-triazol-3-yl)-1H-imidazo[4,5-c]pyridin-1-yl)cyclohexyl)thiazole-2-carboxamide] | ≤ 0.1 | 0.1 to 0.5 | < 0.5
15 | Cc1coc(-c2cc3c(cn2)nc(-c2ccccc2F)n3C2CC(NC(=O)c3ncc(Cl)s3)CN(C)C2)n1 (stereo not drawn) [Example 130, 5-chloro-N-(5-(2-(2-fluorophenyl)-6-(4-methyloxazol-2-yl)-1H-imidazo[4,5-c]pyridin-1-yl)-1-methylpiperidin-3-yl)thiazole-2-carboxamide] | ≤ 0.1 | 0.1 to 0.5 | 1 to 5
16 | CC(C)Cc1nc2cnc(-c3cc(C(F)(F)F)n[nH]3)cc2n1[C@@H]1CCC[C@H](NC(=O)c2ncc(Cl)s2)[C@H]1O [Example 216, 5-chloro-N-((1S,2R,3R)-2-hydroxy-3-(2-isobutyl-6-(3-(trifluoromethyl)-1H-pyrazol-5-yl)-1H-imidazo[4,5-c]pyridin-1-yl)cyclohexyl)thiazole-2-carboxamide] | 0.1 to 0.5 | > 1 | 1 to 5
17 | CC(=O)N1CC(NC(=O)c2ncc(C(F)F)s2)CC(n2c(-c3ccccc3F)nc3cnc(-n4ccnn4)cc32)C1 (stereo not drawn) [Example 124, N-(1-acetyl-5-(2-(2-fluorophenyl)-6-(1H-1,2,3-triazol-1-yl)-1H-imidazo[4,5-c]pyridin-1-yl)piperidin-3-yl)-5-(difluoromethyl)thiazole-2-carboxamide] | ≤ 0.1 | 0.1 to 0.5 | 1 to 5
18 | O=C(N[C@H]1CCC[C@@H](n2c(-c3ccccn3)nc3cc(-n4ccnn4)ncc32)C1)c1ccc(Br)s1 [Example 152, 5-bromo-N-((1S,3R)-3-(2-(pyridin-2-yl)-6-(1H-1,2,3-triazol-1-yl)-3H-imidazo[4,5-c]pyridin-3-yl)cyclohexyl)thiophene-2-carboxamide] | ≤ 0.1 | ≤ 0.1 | 0.5 to 1
19 | O=C(NC1CC(O)CC(n2c(-c3ccccc3F)nc3cnc(-c4nnc[nH]4)cc32)C1)c1ncc(Cl)s1 (stereo not drawn) [Example 115, 5-chloro-N-(3-(2-(2-fluorophenyl)-6-(4H-1,2,4-triazol-3-yl)-1H-imidazo[4,5-c]pyridin-1-yl)-5-hydroxycyclohexyl)thiazole-2-carboxamide] | ≤ 0.1 | ≤ 0.1 | < 0.5
